Data reported in PubChem BioAssay AID328 (DTP/NCI, 2004).
“And” between values parts separate entries of the source, which are not always exact repeats. Equal values may be shown once. Inconclusive results and toxic doses are left out. The calls were made as follows: active = survival T/C of 150% or more; inactive = T/C below 125% in these data.

Test system: BDF1 mice, P388 leukemia ip, median survival T/C
Assay: NCI In Vivo Anticancer Drug Screen. Data for tumor model P388 Leukemia (intraperitoneal) in B6D2F1 (BDF1) mice
Conditions: endpoint: median survival time, higher = longer survival
How it was run: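 Each value expresses how treatment altered survival: treated-mouse outcome over vehicle-mouse outcome, both groups bearing the transplanted tumour.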

[1] = dose: 25.0 mg/kg/injection, schedule: Q01DX009 (ip), vehicle: Klucel (hydroxypropylcellulose) (HPC)
[2] = dose: 50.0 mg/kg/injection, schedule: Q01DX009 (ip), vehicle: Klucel (hydroxypropylcellulose) (HPC)
[3] = dose: 200.0 mg/kg/injection, schedule: Q04DX003 (ip), vehicle: Klucel (hydroxypropylcellulose) (HPC)
[4] = dose: 400.0 mg/kg/injection, schedule: Q04DX003 (ip), vehicle: Klucel (hydroxypropylcellulose) (HPC)
[5] = dose: 100.0 mg/kg/injection, schedule: Q04DX003 (ip), vehicle: saline with Tween-80
[6] = dose: 200.0 mg/kg/injection, schedule: Q04DX003 (ip), vehicle: saline with Tween-80
[7] = dose: 200.0 mg/kg/injection, schedule: Q01DX009 (ip), vehicle: saline
[8] = dose: 100.0 mg/kg/injection, schedule: Q01DX009 (ip), vehicle: Klucel (hydroxypropylcellulose) (HPC)
[9] = dose: 100.0 mg/kg/injection, schedule: Q04DX003 (ip), vehicle: Klucel (hydroxypropylcellulose) (HPC)

Measured: T/C

O=C(Nc1cccc(Cl)c1)c1cc(N=Nc2ccc([N+](=O)[O-])cc2Cl)ccc1O
inactive: [1] 114 % of control | [2] 114 % of control | dose: 133.0 mg/kg/injection, schedule: Q04DX003 (ip), vehicle: Klucel (hydroxypropylcellulose) (HPC) 115 % of control
active: [3] 161 % of control | [4] 155 % of control

C=CC(=O)NC12CC3CC(CC(C3)C1)C2
inactive: [5] 95 % of control | [6] 95 % of control

CCCCCCOP(=O)(N1CC1C)N1CC1C (stereo not drawn)
inactive: dose: 50.0 mg/kg/injection, schedule: Q01DX009 (ip), vehicle: saline 122 % of control | [7] 86 % of control
active: dose: 100.0 mg/kg/injection, schedule: Q01DX009 (ip), vehicle: saline 150 % of control and 182 % of control

CP(C)c1ccccc1
inactive: [1] 92 % of control | [2] 96 % of control | dose: 50.0 mg/kg/injection, schedule: Q04DX003 (ip), vehicle: Klucel (hydroxypropylcellulose) (HPC) 100 % of control | [8] 103 % of control | [9] 123 % of control

C[C@]12CCC(=O)C=C1CC[C@H]1[C@@H]3CC[C@](O)(C(=O)CO)[C@@]3(C)C[C@H](O)[C@@]12F
inactive: dose: 12.5 mg/kg/injection, schedule: Q01DX009 (ip), vehicle: Klucel (hydroxypropylcellulose) (HPC) 104 % of control | [1] 109 % of control | [2] 109 % of control | [8] 90 % of control | [9] 120 % of control | [3] 115 % of control | [4] 90 % of control

COc1cc(N(CCCl)CCCl)ccc1/C=N\NC(=O)c1cccnc1
inactive: [1] 98 % of control | [2] 97 % of control | [8] 112 % of control

COc1cc([N+](=O)[O-])c2c(ccc[n+]2C)c1OC
inactive: dose: 50.0 mg/kg/injection, schedule: Q01DX001 (ip), vehicle: saline with Tween-80 100 % of control | dose: 100.0 mg/kg/injection, schedule: Q01DX001 (ip), vehicle: saline with Tween-80 91 % of control | dose: 200.0 mg/kg/injection, schedule: Q01DX001 (ip), vehicle: saline with Tween-80 112 % of control

CCOC(=O)c1c(OCCCc2ccc(F)cc2)cc2ccc3ccccc3c2c1OCCCc1ccc(F)cc1
inactive: [5] 86 % of control | [6] 87 % of control | dose: 400.0 mg/kg/injection, schedule: Q04DX003 (ip), vehicle: saline with Tween-80 103 % of control

O=C(O)c1cc(Cl)c(C(=O)O)cc1Cl
inactive: dose: 75.0 mg/kg/injection, schedule: Q01DX009 (ip), vehicle: saline with Tween-80 116 % of control | dose: 150.0 mg/kg/injection, schedule: Q01DX009 (ip), vehicle: saline with Tween-80 104 % of control | dose: 300.0 mg/kg/injection, schedule: Q01DX009 (ip), vehicle: saline with Tween-80 108 % of control

COc1cc(Cc2nccc3cc(OC)c(OC)cc23)c(C(C)=O)cc1OC
active: dose: 8.0 mg/kg/injection, schedule: Q01DX009 (ip), vehicle: saline 153 % of control | dose: 8.2 mg/kg/injection, schedule: Q01DX009 (ip), vehicle: saline sonified 150 % of control | dose: 12.5 mg/kg/injection, schedule: Q01DX009 (ip), vehicle: saline sonified 155 % of control | dose: 18.75 mg/kg/injection, schedule: Q01DX009 (ip), vehicle: saline sonified 195 % of control

CN1CCOP1OCC(F)(F)F (stereo not drawn)
inactive: dose: 25.0 mg/kg/injection, schedule: Q01DX005 (ip), vehicle: saline 104 % of control | dose: 50.0 mg/kg/injection, schedule: Q01DX005 (ip), vehicle: saline 93 % of control | dose: 100.0 mg/kg/injection, schedule: Q01DX005 (ip), vehicle: saline 109 % of control

O=S(=O)(O)CCO
inactive: [7] 92 % of control | dose: 400.0 mg/kg/injection, schedule: Q01DX009 (ip), vehicle: saline 100 % of control
